For one assay, the system named is BXPC3 cells. The experiment in a line: Proliferation by MTT, increasing concentrations of δ-tocotrienol. It counts as cell-based, human. Conditions: BXPC3, at 24 hours; read-out: IC50 (inhibition of proliferation, MTT). As for the experimental part:
FIG. 24 is a graph wherein BXPC3 pancreatic cancer cells (3×10^3) were plated in 96 well plates and treated the following day with δ-tocotrienol. Proliferation was assessed by MTT at 24 hour intervals. […] HPDE 6C7 cells were also treated with increasing concentrations of δ-tocotrienol for 24 hours.
(§1) MIA PaCa2, SW1990, BXPC3, and HPDE 6C7 cells (3×10^3) were cultured as described in the Examples above, in 96-well plates and treated the following day with increasing concentrations of δ-tocotrienol.

The subject of another assay is MIA PaCa2 xenografts. The experiment in a line: MIA PaCa2 luciferase xenograft tumor growth in nude mice. It counts as in vivo. Conditions: 100 mg/kg/day by gavage. As for the experimental part: Rate of growth by day 10 of treatment is less in the tocotrienol treatment group. Stable transfectants of MIA PaCa2 cells with luciferase were injected subcutaneously into nude mice. Tumor volumes were measured every 2 days with calibers and the rate of growth was determined weekly by measuring tumor luminescence using the IVIS 100 Xenogen system. Tumors of similar volume (100-150 mm^3) and rate of growth based on luminescence were randomized to receive either vehicle or δ-tocotrienol (100 mg/kg/day) by gavage for 20 days.
Stable transfectants of MIA PaCa2 cells with luciferase were injected subcutaneously into nude mice. Mice were treated with either rice bran oil (vehicle) or δ-tocotrienol (100 mg/kg/day) via gavage five times per week. Tumor volumes were measured every 2 days with calibers and the rate of growth was determined weekly by measuring tumor luminescence using the IVIS 100 Xenogen system. Tumors of similar volume (100-150 mm^3) and rate of growth based on luminescence were randomized to receive either vehicle or δ-tocotrienol (100 mg/kg/day) by gavage for 20 days.

In the next assay the test system is HPDE 6C7 cells. The assay is described as follows: Proliferation by MTT, increasing concentrations of δ-tocotrienol. It counts as cell-based, human. Conditions: HPDE 6C7, 24 hours, even at the highest concentrations. The protocol: as §1

Each structure is given as a SMILES string.

Consider `CC(C)=CCC/C(C)=C/CC/C(C)=C/CC[C@]1(C)CCc2cc(O)cc(C)c2O1` [T3 delta, delta tocotrienol], for which the IC50 in the assay with BXPC3 cells lay within 20 to 25 µM. Further, the “rate of growth by tumor luminescence” value in the assay with MIA PaCa2 xenografts (day 10 of treatment) was “significantly less”. The “reduction in tumor growth” value in the assay with MIA PaCa2 xenografts (nude mice, vs vehicle) came to 50%. Further, the antiproliferative effect result in the assay on HPDE 6C7 cells is “relatively resistant”.

Source of the values: patent US8846653B2, “Delta-tocotrienol treatment and prevention of pancreatic cancer” (University of South Florida, priority 2006, dated 2014).
